# Laboratory results from publication PMC10755728, “Inhibitors of the Elastase LasB for the Treatment of Pseudomonas aeruginosa Lung Infections” (ACS Central Science, 2023).
# How the values were obtained:
# [1] = target: T1, LasB (Pseudomonas aeruginosa, UniProt Q02RJ6); assay: biochemical; format: biochemical; conditions: for inhibition at 100 µM: read-out: % inh LasB @100 µM; for IC50: LasB IC50, FRET-based assay
# T1 construct: made in house
# [2] = target: T2, MMP-2 (Homo sapiens, UniProt P08253); assay: MMP-2 inhibition assay; format: biochemical; conditions: 100 μM; read-out: % inhibition MMP-2
# T2 construct: purchased AnaSpec (Fremont, CA, USA)
# T2 sequence (P08253 110-660): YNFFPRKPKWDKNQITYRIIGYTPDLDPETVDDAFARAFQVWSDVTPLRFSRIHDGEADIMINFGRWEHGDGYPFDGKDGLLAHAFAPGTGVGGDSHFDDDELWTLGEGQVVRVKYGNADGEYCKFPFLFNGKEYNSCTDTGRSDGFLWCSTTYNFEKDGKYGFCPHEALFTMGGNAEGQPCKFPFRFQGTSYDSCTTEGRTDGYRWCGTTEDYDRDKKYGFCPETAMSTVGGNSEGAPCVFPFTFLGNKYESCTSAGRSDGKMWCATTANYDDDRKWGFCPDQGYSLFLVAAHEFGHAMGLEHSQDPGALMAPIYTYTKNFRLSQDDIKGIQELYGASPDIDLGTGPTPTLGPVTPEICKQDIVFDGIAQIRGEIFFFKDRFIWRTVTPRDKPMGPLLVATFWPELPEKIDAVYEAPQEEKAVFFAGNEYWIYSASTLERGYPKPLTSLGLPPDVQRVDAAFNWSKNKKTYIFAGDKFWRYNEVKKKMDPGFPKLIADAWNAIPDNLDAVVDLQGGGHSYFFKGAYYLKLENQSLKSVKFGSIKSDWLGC
# [3] = Lipophilicity determination (LogD7.4, HPLC-MS); format: physicochemical; conditions: pH 7.4, pH 7.4, chromatographic
# Experimental: Lipophilicity determination. LogD7.4 was analyzed using an HPLC−MS based method.50 The retention time of 12 compounds with known LogD7.4 was determined and plotted toward their LogD7.4. Linear regression was used to determine the LogD7.4 of unknown compounds. Analysis was performed using a Dionex Ultimate 3000 HPLC system coupled to a TSQ Quantum Access MAX (Thermo Fisher, Dreieich, Germany) with the following conditions: EC150/2 NUCLEODUR C18 Pyramid column, 5 μM (Macherey Nagel, Düren, Germany); eluent A: 50 mM NH4OAc pH 7.4, eluent B: acetonitrile, and flow: 0.6 mL/min.
# [4] = Plasma stability, mouse; format: in vitro ADME; conditions: mouse plasma; read-out: Plasma T1/2 Mouse
# [5] = Metabolic stability in mouse liver S9 fraction; format: in vitro ADME
# [6] = target: T3, MMP-3 (Homo sapiens, UniProt P08254); assay: MMP-3 inhibition assay; format: biochemical; conditions: 100 μM; read-out: % inhibition MMP-3
# T3 construct: purchased AnaSpec (Fremont, CA, USA)
# T3 sequence (P08254 100-477): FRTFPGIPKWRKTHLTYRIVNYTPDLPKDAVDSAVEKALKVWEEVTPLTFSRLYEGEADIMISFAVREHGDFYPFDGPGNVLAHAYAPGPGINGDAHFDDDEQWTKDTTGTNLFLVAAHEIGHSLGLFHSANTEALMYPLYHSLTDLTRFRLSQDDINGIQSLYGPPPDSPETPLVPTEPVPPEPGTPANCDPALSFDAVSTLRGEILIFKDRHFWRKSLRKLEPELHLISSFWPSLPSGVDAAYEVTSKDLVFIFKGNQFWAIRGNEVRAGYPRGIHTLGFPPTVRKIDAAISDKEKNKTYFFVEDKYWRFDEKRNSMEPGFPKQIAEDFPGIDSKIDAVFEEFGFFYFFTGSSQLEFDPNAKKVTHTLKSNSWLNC
# [7] = target: T4, HDAC-8 (Homo sapiens, UniProt Q9BY41); assay: HDAC-8 inhibitor screening kit; format: biochemical
# T4 construct: purchased Sigma-Aldrich (Saint Louis, MO)
# T4 sequence (Q9BY41 1-377): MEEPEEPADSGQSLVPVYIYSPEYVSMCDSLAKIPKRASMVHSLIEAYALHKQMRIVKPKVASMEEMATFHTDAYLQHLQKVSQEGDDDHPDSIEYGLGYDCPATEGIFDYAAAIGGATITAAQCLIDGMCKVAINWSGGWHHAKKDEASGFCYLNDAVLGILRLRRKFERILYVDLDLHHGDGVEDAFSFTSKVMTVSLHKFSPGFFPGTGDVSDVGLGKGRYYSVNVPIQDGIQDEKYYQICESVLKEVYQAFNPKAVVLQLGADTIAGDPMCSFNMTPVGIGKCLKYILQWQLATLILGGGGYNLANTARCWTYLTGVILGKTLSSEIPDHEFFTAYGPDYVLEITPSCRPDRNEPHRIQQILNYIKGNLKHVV
# [8] = target: T5, HDAC-3 (Homo sapiens, UniProt O15379); assay: HDAC-3 inhibitor screening kit; format: biochemical
# T5 construct: purchased Sigma-Aldrich (Saint Louis, MO)
# T5 sequence (O15379 whole entry): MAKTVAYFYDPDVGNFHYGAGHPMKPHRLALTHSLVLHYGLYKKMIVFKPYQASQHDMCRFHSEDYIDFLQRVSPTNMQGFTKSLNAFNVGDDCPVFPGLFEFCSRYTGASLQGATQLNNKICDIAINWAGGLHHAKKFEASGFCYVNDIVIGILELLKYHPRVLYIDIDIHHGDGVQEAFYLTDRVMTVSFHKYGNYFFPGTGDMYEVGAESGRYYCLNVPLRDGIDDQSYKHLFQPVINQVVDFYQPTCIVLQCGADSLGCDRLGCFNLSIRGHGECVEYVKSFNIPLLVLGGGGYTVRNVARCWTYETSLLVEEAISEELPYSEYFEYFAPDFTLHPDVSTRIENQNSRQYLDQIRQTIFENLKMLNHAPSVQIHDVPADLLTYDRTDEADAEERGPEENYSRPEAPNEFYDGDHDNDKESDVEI
# T5 sequence (Q9Y618 395-489 partner limits assumed): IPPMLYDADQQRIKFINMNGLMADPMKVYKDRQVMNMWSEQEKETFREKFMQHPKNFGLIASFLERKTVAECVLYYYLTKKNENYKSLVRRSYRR
# [9] = Metabolic stability in human liver S9 fraction; format: in vitro ADME
# [10] = target: T6, MMP-1 (Homo sapiens, UniProt P03956); assay: MMP-1 inhibition assay; format: biochemical; conditions: 100 μM; read-out: % inhibition MMP-1
# T6 construct: purchased AnaSpec (Fremont, CA, USA)
# T6 sequence (P03956 100-469): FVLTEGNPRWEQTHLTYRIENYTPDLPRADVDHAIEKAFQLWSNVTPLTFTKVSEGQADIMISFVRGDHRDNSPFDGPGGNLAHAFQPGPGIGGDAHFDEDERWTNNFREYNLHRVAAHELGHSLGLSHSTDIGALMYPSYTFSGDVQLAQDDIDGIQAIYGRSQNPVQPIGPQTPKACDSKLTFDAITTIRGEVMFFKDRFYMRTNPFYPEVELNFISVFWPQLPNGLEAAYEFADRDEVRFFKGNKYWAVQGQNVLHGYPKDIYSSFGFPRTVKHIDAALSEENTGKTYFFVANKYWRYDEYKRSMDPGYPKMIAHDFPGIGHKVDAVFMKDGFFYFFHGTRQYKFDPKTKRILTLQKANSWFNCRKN
# [11] = Calu-3 permeability; format: in vitro ADME; conditions: human
# [12] = target: T7, TACE (Homo sapiens, UniProt P78536); assay: TACE inhibitor screening kit; format: biochemical; conditions: 100 μM; read-out: % inhibition TACE
# T7 construct: purchased Sigma-Aldrich (Saint Louis, MO)
# T7 sequence (P78536 215-824): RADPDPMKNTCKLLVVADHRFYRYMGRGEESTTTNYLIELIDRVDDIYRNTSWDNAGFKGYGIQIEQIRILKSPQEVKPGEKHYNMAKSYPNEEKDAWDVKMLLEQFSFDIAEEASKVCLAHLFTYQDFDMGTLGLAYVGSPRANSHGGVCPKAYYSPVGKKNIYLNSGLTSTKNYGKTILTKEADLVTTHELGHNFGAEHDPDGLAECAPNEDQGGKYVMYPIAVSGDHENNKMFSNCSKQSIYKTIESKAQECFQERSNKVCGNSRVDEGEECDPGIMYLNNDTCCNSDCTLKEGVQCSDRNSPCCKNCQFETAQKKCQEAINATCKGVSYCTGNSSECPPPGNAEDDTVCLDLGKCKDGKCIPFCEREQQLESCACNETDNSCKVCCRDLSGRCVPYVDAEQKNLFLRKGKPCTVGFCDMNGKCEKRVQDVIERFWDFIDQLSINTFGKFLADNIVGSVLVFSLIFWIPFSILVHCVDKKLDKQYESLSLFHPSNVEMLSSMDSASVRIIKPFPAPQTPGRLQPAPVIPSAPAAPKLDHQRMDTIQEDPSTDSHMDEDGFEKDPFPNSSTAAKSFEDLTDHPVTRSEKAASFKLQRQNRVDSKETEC
# [13] = target: T8, COX-1 (Ovis aries, UniProt P05979); assay: Fluorometric COX-1 inhibitor assay; format: biochemical, human
# T8 construct: purchased Abcam (Cambridge, UK)
# T8 sequence (P05979 25-600): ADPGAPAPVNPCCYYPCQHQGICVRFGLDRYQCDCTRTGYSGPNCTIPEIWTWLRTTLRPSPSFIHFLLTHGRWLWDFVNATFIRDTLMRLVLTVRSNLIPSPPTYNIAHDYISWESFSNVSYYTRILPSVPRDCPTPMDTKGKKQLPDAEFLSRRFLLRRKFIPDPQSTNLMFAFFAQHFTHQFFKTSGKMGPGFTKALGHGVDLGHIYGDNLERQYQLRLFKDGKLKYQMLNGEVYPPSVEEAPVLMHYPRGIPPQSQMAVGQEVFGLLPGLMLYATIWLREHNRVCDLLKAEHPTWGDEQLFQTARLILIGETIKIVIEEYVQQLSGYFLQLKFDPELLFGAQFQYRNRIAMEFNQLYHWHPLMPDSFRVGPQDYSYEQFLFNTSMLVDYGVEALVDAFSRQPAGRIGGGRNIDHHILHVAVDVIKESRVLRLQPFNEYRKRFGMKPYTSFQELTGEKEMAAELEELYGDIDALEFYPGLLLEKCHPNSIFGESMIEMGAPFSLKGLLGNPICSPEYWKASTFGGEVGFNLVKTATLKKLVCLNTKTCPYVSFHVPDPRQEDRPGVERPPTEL
# [14] = tested on: HEK293; conditions: human, 48 h, 100 µM
# Experimental: Culturing of HepG2, A549 and HEK293 cells. The human hepatocellular carcinoma cell line HepG2, the lung adenocarcinoma cell line A549 and Human Embryonic (HEK) 293 cells were cultured in Dulbecco's Modified Eagle Medium (DMEM), containing 10% Fetal Bovine Serum
# (FBS) and 1% penicillin-streptomycin mixture. Cells were maintained according to standard cell
# Cytotoxicity assay. An MTT-based assay was employed to evaluate the viability of HepG2,
# HEK293 and A549 cells after challenge with selected LasB inhibitors and performed as described
# [15] = target: ColH-PD (Hathewaya histolytica, UniProt Q46085); assay: biochemical; format: biochemical, Clostridium histolyticum; conditions: read-out: % inhibition ColH-PD @1 µM
# ColH-PD, sequence (Q46085 331-721 limits assumed): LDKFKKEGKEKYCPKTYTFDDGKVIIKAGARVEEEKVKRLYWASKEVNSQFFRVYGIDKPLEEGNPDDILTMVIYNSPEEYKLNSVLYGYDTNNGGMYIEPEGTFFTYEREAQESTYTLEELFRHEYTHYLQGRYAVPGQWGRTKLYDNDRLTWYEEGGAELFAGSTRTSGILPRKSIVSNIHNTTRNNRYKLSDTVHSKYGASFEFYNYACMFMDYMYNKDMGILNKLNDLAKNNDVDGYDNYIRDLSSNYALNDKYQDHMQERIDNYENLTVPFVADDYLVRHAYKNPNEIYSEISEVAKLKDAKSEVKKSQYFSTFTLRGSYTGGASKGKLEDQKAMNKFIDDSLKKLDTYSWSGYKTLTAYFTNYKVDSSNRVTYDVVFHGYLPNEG
# T1 sequence (Q02RJ6 198-498): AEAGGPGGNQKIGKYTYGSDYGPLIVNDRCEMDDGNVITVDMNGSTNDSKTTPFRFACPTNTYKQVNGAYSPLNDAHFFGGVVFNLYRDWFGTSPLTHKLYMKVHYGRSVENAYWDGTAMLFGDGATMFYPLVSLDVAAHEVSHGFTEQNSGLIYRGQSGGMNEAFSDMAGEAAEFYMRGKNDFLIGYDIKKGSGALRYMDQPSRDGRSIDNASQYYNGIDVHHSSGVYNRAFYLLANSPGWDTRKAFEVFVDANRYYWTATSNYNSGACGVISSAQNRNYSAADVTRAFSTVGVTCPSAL
smiles,measurement,setting,value
CC(=O)c1ccc(NC(=O)CP(=O)(O)O)cc1 [Compound 2],inhibition at 600 µM,[1]; read-out: % LasB inhibition @600 µM,33 ± 4%
Cc1ccc(NC(=O)[C@H](CC(C)C)NC(=O)OC(C)(C)C)cc1 [Compound 3a],inhibition at 100 µM,[1],< 10%
Cc1ccc(NC(=O)[C@@H](N)CC(C)C)cc1 [Compound 3b],inhibition at 100 µM,[1],< 10%
Cc1ccc(NC(=O)C(CC(C)C)OS(N)(=O)=O)cc1 (stereo not shown) [Compound 3c],IC50,[1],53000 ± 4000 nM
CCOC(=O)C(CC(C)C)C(=O)Nc1ccc(C)cc1 (stereo not shown) [Compound 3d],inhibition at 100 µM,[1],< 10%
Cc1ccc(NC(=O)C(CC(C)C)C(=O)O)cc1 (stereo not shown) [Compound 3e],inhibition at 100 µM,[1],46 ± 3%
Cc1ccc(NC(=O)C(CC(C)C)S(=O)(=O)O)cc1 (stereo not shown) [Compound 3i],inhibition at 100 µM,[2],< 10%
same,chromatographic logD,[3],-0.64
same,half-life at 1 μM,[4],> 2.5 h
same,microsomal CLint at 1 μM,[5],< 5.8 µL/min/mg
same,inhibition at 100 µM,[6],< 10%
same,inhibition at 100 µM,[7],< 10%
same,inhibition at 100 µM,[8],< 10%
same,microsomal CLint at 1 μM,[9],< 5.8 µL/min/mg
same,inhibition at 100 µM,[10],12 ± 2%
same,Papp at 300 min,[11],0.47 ± 0.36 ×10⁻⁶ cm/s
same,inhibition at 100 µM,[12],< 10%
same,IC50,[1],16000 nM
same,inhibition at 100 µM,[13],< 10%
Cc1ccc(NC(=O)C(CC(C)C)c2nn[nH]n2)cc1 (stereo not shown) [Compound 3j],inhibition at 100 µM,[1],< 10%
Cc1ccc(NC(=O)C(CC(C)C)n2ccnc2)cc1 (stereo not shown) [Compound 3k],inhibition at 100 µM,[1],14 ± 4%
Cc1ccc(NC(=O)C(CC(C)C)n2ccnn2)cc1 (stereo not shown) [Compound 3l],inhibition at 100 µM,[2],< 10%
same,chromatographic logD,[3],> 1.8
same,half-life at 1 μM,[4],> 2.5 h
same,microsomal CLint at 1 μM,[5],90 ± 9 µL/min/mg
same,inhibition at 100 µM,[6],< 10%
same,inhibition at 100 µM,[7],< 10%
same,inhibition at 100 µM,[8],< 10%
same,microsomal CLint at 1 μM,[9],8.8 ± 1.2 µL/min/mg
same,inhibition at 100 µM,[10],< 10%
same,Papp at 300 min,[11],17 ± 1 ×10⁻⁶ cm/s
same,inhibition at 100 µM,[12],< 10%
same,inhibition at 100 µM,[13],< 10%
Cc1ccc(NC(=O)C(CC(C)C)n2nccn2)cc1 (stereo not shown) [Compound 3m],inhibition at 100 µM,[2],< 10%
same,chromatographic logD,[3],> 1.8
same,half-life at 1 μM,[4],> 2.5 h
same,microsomal CLint at 1 μM,[5],356 ± 45 µL/min/mg
same,inhibition at 100 µM,[6],< 10%
same,inhibition at 100 µM,[7],< 10%
same,inhibition at 100 µM,[8],< 10%
same,microsomal CLint at 1 μM,[9],18.5 ± 0.9 µL/min/mg
same,inhibition at 100 µM,[10],< 10%
same,% growth inhibition HEK293,[14],21 ± 1%
same,Papp at 300 min,[11],18 ± 1 ×10⁻⁶ cm/s
same,inhibition at 100 µM,[12],< 10%
same,inhibition at 100 µM,[13],< 10%
Cc1ccc(NC(=O)C(CC(C)C)n2cncn2)cc1 (stereo not shown) [Compound 3n],inhibition at 100 µM,[1],< 10%
CCCC(C(=O)Nc1ccc(OC)cc1)P(=O)(O)O (stereo not shown) [Compound 4ab],IC50,[1],1110 nM
CCCC(C(=O)Nc1ccc(C(C)=O)cc1)P(=O)(O)O (stereo not shown) [Compound 4ad],IC50,[1],870 ± 30 nM
CC(C)CC(C(=O)Nc1ccc(Cl)c(Cl)c1)P(=O)(O)O (stereo not shown) [Compound 4c],inhibition at 1 µM,[15],< 10%
same,IC50,[1],25.7 ± 4.1 nM
same,fold more active than 4-acetyl (4g),[1]; vs 4g,1.6 fold
